Reference: ChEMBL document CHEMBL5346898, “Triazole-fused pyrimidines in target-based anticancer drug discovery” (Eur J Med Chem, 2023)
Values belong to the compound of their own block, whether it stands above or below them.

Assays:
SW620/AD300 = assay: Antitumor activity against […] SW620/AD300 cells xenografted in BALB/c nude mouse assessed as relative tumor proliferation rate at 100 mg/kg/day, IG measured after 15 days relative to control; type: functional, Homo sapiens; details: time 15 day
[1] = molecular target: Lysine-specific histone demethylase 1A (Homo sapiens, UniProt O60341); assay: Inhibition of LSD1 (unknown origin)
[2] = molecular target: Ubiquitin carboxyl-terminal hydrolase 7 (Homo sapiens, UniProt Q93009); assay: Inhibition of USP7 (unknown origin)
Chain of Ubiquitin carboxyl-terminal hydrolase 7 (Q93009 whole entry): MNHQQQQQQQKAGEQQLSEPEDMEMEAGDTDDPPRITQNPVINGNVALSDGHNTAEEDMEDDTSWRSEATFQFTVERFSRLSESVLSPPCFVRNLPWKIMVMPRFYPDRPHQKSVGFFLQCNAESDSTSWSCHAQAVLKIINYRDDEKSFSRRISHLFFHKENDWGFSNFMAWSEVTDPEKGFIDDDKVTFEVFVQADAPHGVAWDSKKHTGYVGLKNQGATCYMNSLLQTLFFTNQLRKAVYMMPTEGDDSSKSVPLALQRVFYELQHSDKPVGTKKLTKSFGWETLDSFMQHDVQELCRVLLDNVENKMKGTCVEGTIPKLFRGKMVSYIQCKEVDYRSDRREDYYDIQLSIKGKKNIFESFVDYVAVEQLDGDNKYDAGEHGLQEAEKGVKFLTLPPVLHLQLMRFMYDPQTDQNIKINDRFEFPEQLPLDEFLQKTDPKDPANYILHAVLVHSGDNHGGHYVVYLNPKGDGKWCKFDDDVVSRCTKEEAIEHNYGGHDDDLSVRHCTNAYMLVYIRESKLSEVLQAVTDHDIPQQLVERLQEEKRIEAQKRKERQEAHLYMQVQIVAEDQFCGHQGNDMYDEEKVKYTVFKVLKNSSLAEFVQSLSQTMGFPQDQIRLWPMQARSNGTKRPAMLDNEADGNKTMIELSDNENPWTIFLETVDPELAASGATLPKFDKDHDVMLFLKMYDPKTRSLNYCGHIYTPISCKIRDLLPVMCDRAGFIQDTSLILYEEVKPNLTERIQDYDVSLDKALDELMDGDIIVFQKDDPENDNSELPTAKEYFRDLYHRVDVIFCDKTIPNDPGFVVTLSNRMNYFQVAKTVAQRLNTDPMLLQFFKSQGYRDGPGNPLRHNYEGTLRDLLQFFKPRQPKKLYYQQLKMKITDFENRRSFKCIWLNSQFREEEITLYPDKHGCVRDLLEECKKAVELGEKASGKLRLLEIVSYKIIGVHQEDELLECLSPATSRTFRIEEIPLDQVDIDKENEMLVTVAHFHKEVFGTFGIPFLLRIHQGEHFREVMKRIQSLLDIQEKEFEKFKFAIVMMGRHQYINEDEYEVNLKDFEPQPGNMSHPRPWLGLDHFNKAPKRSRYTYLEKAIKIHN

[3] = molecular target: T1, Ubiquitin carboxyl-terminal hydrolase 28 (Homo sapiens, UniProt Q96RU2); assay: Inhibition of USP28 (unknown origin)
T1 sequence (Q96RU2 whole entry): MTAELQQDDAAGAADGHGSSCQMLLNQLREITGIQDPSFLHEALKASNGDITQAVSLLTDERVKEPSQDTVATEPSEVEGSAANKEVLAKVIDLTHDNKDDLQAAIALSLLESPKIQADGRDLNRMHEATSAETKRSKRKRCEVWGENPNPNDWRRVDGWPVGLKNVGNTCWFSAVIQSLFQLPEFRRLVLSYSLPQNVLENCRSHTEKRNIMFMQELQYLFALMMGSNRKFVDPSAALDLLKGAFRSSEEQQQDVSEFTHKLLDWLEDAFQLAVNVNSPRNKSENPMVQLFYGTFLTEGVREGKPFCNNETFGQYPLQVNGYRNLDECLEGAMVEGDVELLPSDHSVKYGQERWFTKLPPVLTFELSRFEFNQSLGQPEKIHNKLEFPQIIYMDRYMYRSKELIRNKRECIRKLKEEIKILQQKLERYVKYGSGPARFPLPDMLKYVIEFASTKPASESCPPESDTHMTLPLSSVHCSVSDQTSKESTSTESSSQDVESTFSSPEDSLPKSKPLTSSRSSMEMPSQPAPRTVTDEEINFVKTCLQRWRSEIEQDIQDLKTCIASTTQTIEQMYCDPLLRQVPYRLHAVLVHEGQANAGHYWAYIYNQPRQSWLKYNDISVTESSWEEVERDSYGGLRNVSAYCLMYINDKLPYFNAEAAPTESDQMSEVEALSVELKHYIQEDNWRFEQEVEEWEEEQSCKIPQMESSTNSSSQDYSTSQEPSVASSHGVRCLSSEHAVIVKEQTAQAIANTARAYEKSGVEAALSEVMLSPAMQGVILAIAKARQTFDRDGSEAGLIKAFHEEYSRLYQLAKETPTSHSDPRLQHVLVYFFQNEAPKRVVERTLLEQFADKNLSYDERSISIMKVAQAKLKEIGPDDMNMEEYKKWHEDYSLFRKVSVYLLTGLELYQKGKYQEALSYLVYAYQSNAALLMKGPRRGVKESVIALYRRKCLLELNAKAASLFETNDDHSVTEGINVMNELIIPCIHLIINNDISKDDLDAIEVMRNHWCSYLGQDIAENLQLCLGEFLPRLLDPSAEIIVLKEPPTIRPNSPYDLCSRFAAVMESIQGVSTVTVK

G-401 = assay: Anticancer activity against human G-401 cells assessed as cell growth inhibition; type: functional, cell-based
eIF-2-alpha kinase GCN2 [4] = molecular target: T2, eIF-2-alpha kinase GCN2 (Homo sapiens, UniProt Q9P2K8); assay: Inhibition of human GCN2 (unknown origin)
T2 sequence (Q9P2K8 whole entry): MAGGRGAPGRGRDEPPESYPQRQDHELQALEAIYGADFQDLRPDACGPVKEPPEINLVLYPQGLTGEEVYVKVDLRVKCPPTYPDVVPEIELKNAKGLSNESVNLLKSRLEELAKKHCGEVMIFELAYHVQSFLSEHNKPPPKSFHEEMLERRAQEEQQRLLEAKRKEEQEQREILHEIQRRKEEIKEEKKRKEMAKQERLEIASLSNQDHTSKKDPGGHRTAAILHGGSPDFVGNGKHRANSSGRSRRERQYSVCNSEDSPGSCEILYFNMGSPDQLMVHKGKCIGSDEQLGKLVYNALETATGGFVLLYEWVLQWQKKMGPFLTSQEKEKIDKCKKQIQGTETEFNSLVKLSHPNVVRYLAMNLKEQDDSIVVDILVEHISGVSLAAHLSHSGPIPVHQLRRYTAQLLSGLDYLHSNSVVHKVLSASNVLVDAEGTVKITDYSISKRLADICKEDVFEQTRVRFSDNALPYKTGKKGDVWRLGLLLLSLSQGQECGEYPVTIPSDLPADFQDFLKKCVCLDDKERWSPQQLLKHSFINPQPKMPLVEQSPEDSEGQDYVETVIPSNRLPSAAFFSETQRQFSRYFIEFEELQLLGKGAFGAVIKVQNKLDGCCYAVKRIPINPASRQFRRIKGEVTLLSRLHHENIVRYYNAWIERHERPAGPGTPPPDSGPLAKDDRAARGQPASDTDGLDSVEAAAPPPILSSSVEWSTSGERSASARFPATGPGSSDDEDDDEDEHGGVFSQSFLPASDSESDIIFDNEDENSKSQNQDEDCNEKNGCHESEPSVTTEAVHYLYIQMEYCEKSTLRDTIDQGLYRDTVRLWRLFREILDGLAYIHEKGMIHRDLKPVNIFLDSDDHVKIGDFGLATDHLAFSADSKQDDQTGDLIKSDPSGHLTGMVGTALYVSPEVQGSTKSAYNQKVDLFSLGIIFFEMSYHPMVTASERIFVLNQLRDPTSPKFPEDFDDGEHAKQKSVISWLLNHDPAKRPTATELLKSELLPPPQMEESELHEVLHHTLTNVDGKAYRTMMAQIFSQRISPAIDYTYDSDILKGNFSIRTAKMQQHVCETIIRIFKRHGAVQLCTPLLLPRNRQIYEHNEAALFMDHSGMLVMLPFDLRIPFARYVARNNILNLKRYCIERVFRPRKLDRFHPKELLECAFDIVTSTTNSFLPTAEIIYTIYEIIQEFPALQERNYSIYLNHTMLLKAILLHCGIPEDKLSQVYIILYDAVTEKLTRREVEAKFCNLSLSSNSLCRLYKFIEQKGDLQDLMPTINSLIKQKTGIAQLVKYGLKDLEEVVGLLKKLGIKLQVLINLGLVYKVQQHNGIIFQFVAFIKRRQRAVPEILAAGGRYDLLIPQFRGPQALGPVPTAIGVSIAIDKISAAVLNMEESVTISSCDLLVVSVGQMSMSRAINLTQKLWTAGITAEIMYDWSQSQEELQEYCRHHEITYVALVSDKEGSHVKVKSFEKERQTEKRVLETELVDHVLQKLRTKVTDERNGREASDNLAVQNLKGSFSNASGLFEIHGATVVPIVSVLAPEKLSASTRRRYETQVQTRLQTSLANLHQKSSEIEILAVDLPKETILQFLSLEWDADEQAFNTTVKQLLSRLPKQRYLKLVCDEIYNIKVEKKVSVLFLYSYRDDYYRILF

Polycomb protein EED = Polycomb protein EED (Homo sapiens, UniProt O75530); assay: Inhibition of EED (unknown origin)
Chain of Polycomb protein EED (O75530 whole entry): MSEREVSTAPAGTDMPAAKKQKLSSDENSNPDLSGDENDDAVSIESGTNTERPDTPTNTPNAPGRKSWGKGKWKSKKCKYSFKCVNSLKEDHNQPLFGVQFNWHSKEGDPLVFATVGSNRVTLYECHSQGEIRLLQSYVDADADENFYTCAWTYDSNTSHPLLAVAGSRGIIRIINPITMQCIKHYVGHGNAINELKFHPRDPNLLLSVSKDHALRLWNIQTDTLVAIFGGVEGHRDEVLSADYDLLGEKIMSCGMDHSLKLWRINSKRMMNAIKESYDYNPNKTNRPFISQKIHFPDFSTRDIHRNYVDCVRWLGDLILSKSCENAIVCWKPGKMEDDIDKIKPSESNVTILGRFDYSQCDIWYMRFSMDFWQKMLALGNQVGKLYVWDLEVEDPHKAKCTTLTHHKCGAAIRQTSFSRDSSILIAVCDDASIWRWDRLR

Tubulin [5] = assay: Inhibition of tubulin polymerization (unknown origin) by spectrophotometric analysis; type: protein-complex assay, Homo sapiens
Tubulin [6] = assay: Inhibition of tubulin polymerization (unknown origin); type: protein-complex assay, Homo sapiens
eIF-2-alpha kinase GCN2 [7] = molecular target: T2, eIF-2-alpha kinase GCN2; assay: Inhibition of human recombinant GCN2 using eIF2alpha as substrate
Tubulin (Homo sapiens) = Tubulin (Homo sapiens) (UniProt P68371+Q9H4B7+P0DPH7+P68366+Q13509+Q71U36+P04350+Q3ZCM7+P07437+P68363+Q9BQE3+Q6PEY2+Q13885+Q9BVA1+Q9BUF5); assay: Inhibition of tubulin polymerization (unknown origin) at 10 uM by spectrophotometric analysis relative to control; type: protein-complex assay
[8] = Anticancer activity against human A2780AD cells assessed as cell growth measured after 48 hrs by MTT assay; type: functional, cell-based
A2780 = assay: Anticancer activity against human A2780 cells assessed as cell growth measured after 48 hrs by MTT assay; type: functional, cell-based; details: A2780, 48 h

SMILES: Cc1cc(Nc2ccccc2)n2nc(SCc3nc4ccccc4[nH]3)nc2n1
- T/C (SW620/AD300): 29.7%

- IC50 [1]: > 100 µM
- IC50 [2]: > 100 µM
- IC50 [3]: 1.1 µM
SMILES: CCCSc1nc(NCCN)c2nnn(Cc3ccc(Cl)cc3)c2n1

SMILES: N#Cc1c2c(c3nncn3c1NCc1ccco1)CN(Cc1ccccc1)CC2
- IC50 (G-401): 3.28 µM

- IC50 (eIF-2-alpha kinase GCN2 [4]): 0.016 µM
SMILES: CCOc1ccc(-n2nnc3cnc(Nc4cnn(C5CCOCC5)c4)nc32)cc1

- IC50 (Polycomb protein EED): 0.05 µM
SMILES: Cc1ncccc1-c1cnc(NCc2c(F)cc(N)c3c2CCO3)n2cnnc12

- IC50 (Tubulin [5]): 9.9 µM
SMILES: COc1ccc(-c2c(C(C)=O)c(C)nc3nc(-c4cc(OC)c(OC)c(OC)c4)nn23)cc1[N+](=O)[O-]

SMILES: CS(=O)(=O)c1ccc(-c2cnc(NCc3ccco3)n3cnnc23)cc1
- IC50 (Polycomb protein EED): 0.03 µM
- IC50 (G-401): 85 µM

- IC50 (Tubulin [6]): 0.39 µM
SMILES: Cc1cc(Nc2ccc(F)cc2)n2nc(NCCCc3ccccc3)nc2n1

- IC50 (eIF-2-alpha kinase GCN2 [4]): < 0.3 µM
SMILES: c1nn(C2CCOCC2)cc1Nc1ncc2nnn(-c3ccc4cn[nH]c4c3)c2n1

- IC50 (Tubulin [6]): 3.84 µM
SMILES: COc1cc(-c2cc(-c3ccc(Cl)cc3)nc3nc(N)nn23)cc(OC)c1OC

- IC50 (eIF-2-alpha kinase GCN2 [7]): 0.004 µM
SMILES: COc1ccc(-n2nnc3cnc(Nc4ccc(N)c(C)c4)nc32)cc1

- inhibition (Tubulin (Homo sapiens)): 42%
SMILES: COc1cc(-c2nc3nc(C)c(C(C)=O)c(-c4ccc([N+](=O)[O-])cc4)n3n2)cc(OC)c1OC

SMILES: CO[C@H]1C[C@H]2CC[C@@H](C1)N2c1c(-c2c(F)cc(F)cc2F)c(Cl)nc2ncnn12
- IC50 [8]: 0.081 µM
- IC50 (A2780): 0.051 µM
